Columns and labels:
Pasteurella = test: Bacterial isolation from tissues of sacrificed treated calves; format: in vivo; conditions: Calf No. 4, 4 days administered
Source text: At the end of the experiment, six calves are sacrificed, and animal tissues examined for aerobic and anaerobic bacteria. Pasteurella are isolated and identified from three of the sacrificed calves. No anaerobes are recovered from any tissues.

shipping fever [1] = test: Gross necropsy findings of sacrificed treated calves; format: in vivo; conditions: Calf No. 4 (d), 4 days administered
shipping fever [2] = test: Control of shipping fever in young cattle: mortality and days to return to normal temperature (Example 2); format: in vivo, calves; conditions: 11.0 mg/kg i.m., 3 daily injections
Source text: In vivo activity of Isopropyl BM123γ for the control of shipping fever in young cattle as compared to oxytetracycline.
Calves weighing 90.6 to 181.2 Kg received at the feedlot are processed as is normally done, except no antibacterial treatment is given. Processing includes vaccination with Infectious Bovine Rhinotracheitis (Bovine virus Diarrhea) Leptospirosis vaccine, administration of a Clostridium novyi, septicum, sordelli, chauvei bacterin, levamisole (1/2 oblet), i.m. administration of 3 ml of a vitamin A, D and E formulation, a pour-on formulation of 0,0-dimethyl-0-(2,4,5-trichlorophenyl) ester of phosphorothioic acid for the control of grubs and lice, and one DES (diethylstilbestrol) implant in an ear. In addition--and at the same time--the calves are branded, ear tagged, dehorned and castrated where applicable.
One to two days after arrival and processing, sick calves are removed from the holding pens and those with temperatures of 40.0° C. or higher and showing symptoms of respiratory disease are selected for the study.
A total of 300 calves are randomly allotted to four groups of 75 calves each. One group serves as infected unmedicated controls receiving a "blank" solution, the others receive intramuscularly between hip and pin bones, for a total of 3 daily injections of:
a. 11 mg/kg body weight of oxytetracycline, the maximum recommended dose;
b. 0.5 mg/kg body weight of Isopropyl BM123γ; or
c. 1.0 mg/kg body weight of Isopropyl BM123γ.
The preparation and composition of injectables for "b" and "c" are described in Example 5 below.
Temperatures are recorded daily until two successive readings of 39.7° C. or lower are recorded, at which time calves are moved from the "sick" pen to the "recovered" pen. Although some of the "recovered" calves continue to show symptoms of disease, the criterion of body temperature is selected since it is completely objective.
One hundred fifty-four calves are treated the first day, fifty the second and 96 the third day. Following treatment, each animal is observed and its temperature recorded for a total of 14 consecutive days. Each animal which dies is necropsied and duplicate samples of lung and mediastinal lymph node are taken for microbiological examination. Necropsy examinations confirm the presence of severe pneumonia in most animals which died.
These calves died early in the study from conditions which the treatments should not have been expected to control.

shipping fever [3] = test: Efficacy in depressing the body temperature of calves having shipping fever (Example 1); format: in vivo; conditions: 13 mg/kg i.m., three or four consecutive days
Source text: In vivo activity of BM123γ-hydrochloride and of isopropyl BM123γ for the control of shipping fever in calves.
Two hundred sick calves, with elevated temperatures and clinical signs of shipping fever are chosen for the experiment. The animals are allotted to four groups of 50 calves each. One group serves as nonmedicated, infected controls receiving placebos, the other groups receive intramuscular injections of the respective drugs for three or four consecutive days at the levels indicated in Table 1. […]

P. multocida [4] = test: MIC by tube dilution method against P. multocida (Example 3); format: cell-based; conditions: 24 hours, 37° C.
Method: (§1) In vitro determination of the potency of Isopropyl BM123γ compared with oxytetracycline and gentamicin in selected bacterial isolates by a tube dilution method.
(§2) Serial two-fold dilutions of antibacterial agent are prepared in trypticase soy broth. To each tube containing 5 ml of broth, is added 0.1 ml of 10^-3 dilution of bacterial inoculum, adjusted prior to dilution of 44 percent transmission at 645 m,u. An inoculated broth, containing no drug is included as growth for each strain tested.

P. hemolytica [5] = test: MIC by tube dilution method against P. hemolytica (Example 3); format: cell-based; conditions: 24 hours, 37° C.
Method: as §1, §2

P. multocida [6] = test: In vitro minimal inhibitory concentration against P. multocida isolates (Example 1); format: cell-based
Method: (§3) Minimal inhibitory concentrations (MIC) of eight Pasteurella isolates are also determined.

P. hemolytica [7] = test: In vitro minimal inhibitory concentration against P. hemolytica isolates (Example 1); format: cell-based
Method: as §3

Compound: CN(C)C1C(=O)C(C(N)=O)=C(O)C2(O)C(=O)C3=C(O)c4c(O)cccc4C(C)(O)C3C(O)C12 (stereo not drawn) [Oxytetracycline]
- Bacteria isolated (Pasteurella): P. Hemolytica + P. multocida
- Total cfu/g (Pasteurella; P. Hemolytica + P. multocida): 9.1 × 10^6 cfu/g
- Lung findings at necropsy (shipping fever [1]): The lungs were consolidated and had miliary abscesses in 60% of their volume
- Mortality, Percent (shipping fever [2]): 5.6%
- average number of days to return to normal temperature (shipping fever [2]): 5.33 days
- Mortality, No. of Animals (shipping fever [2]; group of 75): 4 No. of Animals
- Days to Normal, No. of Animals (shipping fever [2]; normal = two successive readings of 39.7° C. or lower): 72 No. of Animals
- Calves below 39.4° C./total, 2 days after last Injection (shipping fever [3]): 22/38
- Percent of calves below 39.4° C., 2 days after last Injection (shipping fever [3]): 58%
- Mean Temperature 2 days after last Injection (shipping fever [3]; mean initial 40.7): 39.4 °C

Compound: Gentamicin
- MIC (P. multocida [4]; isolate No. 1): 4.0 µg/mL
- MIC (P. multocida [4]; isolate No. 2): 4.0 µg/mL
- MIC (P. multocida [4]; isolate No. 3): 8.0 µg/mL
- MIC (P. multocida [4]; isolate No. 4): 4.0 µg/mL
- MIC (P. multocida [4]; isolate No. 5): 4.0 µg/mL
- MIC (P. multocida [4]; isolate No. 6): 4.0 µg/mL
- MIC (P. multocida [4]; isolate No. 7): 4.0 µg/mL
- MIC (P. hemolytica [5]; isolate No. 1): 8.0 µg/mL
- MIC (P. hemolytica [5]; isolate No. 2): 8.0 µg/mL
- MIC (P. hemolytica [5]; isolate No. 3): 4.0 µg/mL
- MIC (P. hemolytica [5]; isolate No. 4): 8.0 µg/mL
- MIC (P. hemolytica [5]; isolate No. 5): 4.0 µg/mL
- MIC (P. multocida [6]; isolate No. 6): 2 µg/mL
- MIC (P. multocida [6]; isolate No. 7): 2 µg/mL
- MIC (P. multocida [6]; isolate No. 8): 2 µg/mL
- MIC (P. hemolytica [7]; isolate No. 1): 4 µg/mL
- MIC (P. hemolytica [7]; isolate No. 2): 8 µg/mL
- MIC (P. hemolytica [7]; isolate No. 3): 2 µg/mL
- MIC (P. hemolytica [7]; isolate No. 4): 4 µg/mL
- MIC (P. hemolytica [7]; isolate No. 5): 4 µg/mL

— US4170645A, “Antibacterial agent BM123γ, salts and alkyl derivatives thereof for the control of shipping fever in cattle” (American Cyanamid Company, priority 1978, dated 1979)
